Reference: patent publication US7906486B2, “Method of treating or preventing tissue deterioration, injury or damage due to disease of mucosa” (SciClone Pharmaceuticals, Inc., priority 2007, dated 2011)
Where “and” joins values, the source holds several entries; their conditions need not be identical. Equal entries are not always repeated.

Tested on: oral mucositis induced by cis-platin 5 mg/kg and radiation 35 Gy (left cheek pouch)
Test: Oral mucositis induced by a combination of cisplatin and acute radiation in hamsters, mucositis scoring (Example 4, SCI-04)
Type: in vivo, Syrian Golden Hamsters
Set-up: key to Mucositis score, day 6 / Mucositis score, day 8: 0: Pouch completely healthy. No erythema or vasodilation.; 1: Light to severe erythema and vasodilation. No erosion of mucosa.; 2: Severe erythema and vasodilation. Erosion of superficial aspects of mucosa leaving denuded areas. Decreased stippling of mucosa.; 3: Formation of off-white ulcers in one or more places. Ulcers may have a yellow/gray due to pseudomembrane. Cumulative size of ulcers should equal about ¼ of the pouch. Severe erythema and vasodilation.; 4: Cumulative seize of ulcers should equal about ½ of the pouch. Loss of pliability. Severe erythema and vasodilation.; 5: Virtually all of pouch is ulcerated. Loss of pliability (pouch can only partially be extracted from mouth); key to peak mean mucositis score: standard six-point oral mucositis scale; ulceration = score ≥3
Conditions: for % Days >=3 / Days <3 / Days >=3: qd, sc, Days −1 to 20; for Days >=3: animal days with mucositis score of three or more
Protocol: Forty Golden Syrian hamsters were prospectively randomized into four equally sized groups. Mucositis was induced on the left cheek pouch mucosa of golden Syrian hamsters by a single dose of cis-platin at 5 mg/kg given on day −1, and a single dose of radiation administered on day 0 at a dose of 35Gy. Beginning on day −1 and continuing once daily until day 20, SCV-07 was given by sub-cutaneous injection at doses of 10 μg/kg, 100 μg/kg or 1 mg/kg in a volume of 100 μL. Animals' activity and weight were evaluated daily. Beginning on day 6 and continuing on alternate days for the duration of the study, oral mucositis was evaluated using a standard scoring six point scale. The number of days of ulcerative mucositis was evaluated using a Chi-squared test of scores of ≧3 throughout the study, and the individual daily group scores were assessed with a Rank Sum Test.
The chemo-radiation model of oral mucositis in hamsters, developed by the Principal Investigator, has proven to be an accurate, efficient and cost-effective technique to provide a preliminary evaluation of anti-mucositis compounds. In this model, hamsters received a single dose of cis-platin at 5 mg/kg on day −1, followed by a single dose of radiation of 35 Gy to the left cheek pouch on day 0, rather than the single dose of 40 Gy on day 0 that is used in acute radiation studies. The course of mucositis in this model is very similar to the acute radiation model and results in peak mucositis scores approximately 16-18 days following radiation.
Hamsters received a single dose of cis-platin at 5 mg/kg on day −1 by intra-peritoneal injection, followed by a single dose of radiation of 35 Gy to the left cheek pouch on day 0. This was accomplished by anesthetizing the animals and everting the left buccal pouch, while protecting the rest of the animal's bodies with a lead shield. Test materials were given by sub-cutaneous injection once daily as detailed in Table 13. Mucositis was evaluated clinically starting on day 6, and continuing on alternate days until day 28. Test articles were given as from day −1 to day 20.
The grade of mucositis was scored, beginning day 6, and for every second day thereafter, through and including day 28. The effect on mucositis of each drug treatment compared to placebo was assessed according to the following parameters:
On each evaluation day, the number of animals with a blinded mucositis score of ≧3 in each drug treatment group was compared to the control group. Differences were compared on a cumulative basis and statistical significance was determined by chi-square analysis. Efficacy, in this analysis, is defined by a significant reduction in the number of days that a group of animals had ulcerations (scores 3) when compared to the control group.
For each evaluation day the scores of the control group were compared to those of the treated groups using non-parametric rank sum analysis. Treatment success was considered as a statistically significant lowering of scores in the treated group on 2 or more days from day 6 to day 28.
Forty (40) male Syrian Golden Hamsters were given an intraperitoneal injection of 5 mg/kg Cisplatin on day −1. On day 0 all animals were given an acute radiation dose of 35 Gy directed to their left buccal cheek pouch. This was accomplished by anesthetizing the animals and everting the left buccal pouch, while protecting the rest of the animals with a lead shield. Test materials were given by subcutaneous injection once daily as detailed in Table 13. Mucositis was evaluated clinically starting on Day 6, and continued on alternate days until day 28.
In this study, mucositis was induced with a combination of Cis-platin and radiation. Cis-platin was given as a single injection (IP) of 5 mg/kg on day −1. Radiation was given as a single focal dose of 35 Gy on day 0. Radiation was generated with a Philips 160 kVp (kilovolt potential) (18.75-ma) X-ray source at a focal distance of 30 cm, with a 3.0 mm hardened Al filtration system. […]

[1] = printed 100 ug/kg on days -1 to 20 (second such statement, third treated group)

N[C@H](CCC(=O)N[C@@H](Cc1c[nH]c2ccccc12)C(=O)O)C(=O)O [SCV-07, γ-D-glutamyl-L-tryptophan]
P, daily mucositis scores (Mann-Whitney rank sum) vs saline controls (10 ug/kg days -1 to 20, day 22): 0.010
P, daily mucositis scores (Mann-Whitney rank sum) vs saline controls (10 ug/kg days -1 to 20, day 24): 0.022
P, daily mucositis scores (Mann-Whitney rank sum) vs saline controls (10 ug/kg days -1 to 20, day 26): 0.015
P, daily mucositis scores (Mann-Whitney rank sum) vs saline controls (10 ug/kg days -1 to 20, day 28): < 0.001
% of animal days with a mucositis score of 3 or higher (10 ug/kg from day -1 to day 20): 34.2%
P, chi-squared test vs controls, days with score of 3 or higher (10 ug/kg from day -1 to day 20): < 0.001
day of peak mean mucositis score (10 ug/kg from day -1 to day 20): 16
peak mean mucositis score (10 ug/kg from day -1 to day 20): 2.9
% Days >=3 (10 ug/kg): 34.2%
Days <3 (10 ug/kg): 158
Days >=3 (10 ug/kg): 82
P, daily mucositis scores (Mann-Whitney rank sum) vs saline controls (100 ug/kg days -1 to 20, day 6): 0.015
P, daily mucositis scores (Mann-Whitney rank sum) vs saline controls (100 ug/kg days -1 to 20, day 22): 0.003
P, daily mucositis scores (Mann-Whitney rank sum) vs saline controls (100 ug/kg days -1 to 20, day 24): 0.005
P, daily mucositis scores (Mann-Whitney rank sum) vs saline controls (100 ug/kg days -1 to 20, day 26): < 0.001
P, daily mucositis scores (Mann-Whitney rank sum) vs saline controls (100 ug/kg days -1 to 20, day 28): < 0.001
peak mean mucositis score (100 ug/kg from day -1 to day 20): 2.8
% of animal days with a mucositis score of 3 or higher (100 ug/kg on days -1 to 20): 29.2%
P, chi-squared test vs controls, days with score of 3 or higher (100 ug/kg on days -1 to 20): < 0.001
% Days >=3 (100 ug/kg): 29.2%
Days <3 (100 ug/kg): 170
Days >=3 (100 ug/kg): 70
P, daily mucositis scores (Mann-Whitney rank sum) vs saline controls (1 mg/kg days -1 to 20, day 6): 0.015
P, daily mucositis scores (Mann-Whitney rank sum) vs saline controls (1 mg/kg days -1 to 20, day 20): 0.029
P, daily mucositis scores (Mann-Whitney rank sum) vs saline controls (1 mg/kg days -1 to 20, day 22): 0.012
P, daily mucositis scores (Mann-Whitney rank sum) vs saline controls (1 mg/kg days -1 to 20, day 24): 0.001
P, daily mucositis scores (Mann-Whitney rank sum) vs saline controls (1 mg/kg days -1 to 20, day 26): 0.003
P, daily mucositis scores (Mann-Whitney rank sum) vs saline controls (1 mg/kg days -1 to 20, day 28): < 0.001
day of peak mean mucositis score (1 mg/kg from day -1 to day 20): 16
peak mean mucositis score (1 mg/kg from day -1 to day 20): 3.2
% Days >=3 (1 mg/kg): 30.8%
Days <3 (1 mg/kg): 166
Days >=3 (1 mg/kg): 74
Mucositis score, day 6 (Group 2 (SCV-07 10 μg/kg, day -1 to day 20), individual animal scores, two scores per animal, day 6): 0 (14×) and 1 (6×)
Mucositis score, day 8 (Group 2 (SCV-07 10 μg/kg, day -1 to day 20), individual animal scores, two scores per animal, day 8): 0 (18×) and 1 (2×)
severe mucositis, % of animals days evaluated (SCV-07 treated animals (all test groups), 50% in vehicle controls): approximately 30%
% of animal days with a mucositis score of 3 or higher [1]: 30.8%
P, chi-squared test vs controls, days with score of 3 or higher [1]: < 0.001
